Biological target: Activated AMPK complex 1 (containing alpha1beta1gamma1) (Homo sapiens (Human), UniProt Q13131+Q9Y478)
Assay: in vitro AMPK activation assay (ADP-Glo Kinase Assay)
Assay type: biochemical
Settings: 1 μM peptide substrate, 30 μM ATP, 60 min, room temperature, luminescence
Text: Activated AMPK complex 1 (containing alpha1beta1gamma1) was obtained from baculovirus expression system. The gene encoding AMPK alpha1 was cloned into the pACG2T vector (BD Biosciences) to obtain a N-terminal Glutathion S transferase (GST)-fusion protein. The genes encoding AMPK beta 1 and gamma1 were cloned into the p2Bac dual multiple cloning site vector (Invitrogen) with beta1 under the control of the p10 promoter and gamma1 under the control of the PH promoter. The transfer vectors containing AMPK were co-transfected individually with AcPNV BacMagic-3 DNA (EMD Millipore) in Sf9 cells and the recombinant baculoviruses were harvested after 5 days, followed by 3 rounds of amplification of the virus stock in Sf9 cells. AMPK (alpha1beta1gamma1) was expressed in High Five 5 cells by co-infection of recombinant alpha1 virus and recombinant beta1/gamma1 virus for 72 h at 27° C. Cells were harvested by centrifugation and lysed by 3 freeze/thaw cycles in PBS with 10% glycerol and protease inhibitor cocktail (Roche). After centrifugation AMPK a1b1g1 in the supernatant was captured by immobilized glutathione (GE Healthcare), impurities were washed away with PBS and AMPK alpha1beta1gamma1 was eluted with PBS containing 20 mM reduced gluthathione. The protein buffer was then exchanged to PBS with 10% glycerol and protein concentration was determined by UV absorbance.
The white 384-well Optiplates (cat. no. 6007299) were purchased from PerkinElmer. The V9101 ADP-Glo Kinase Assay and ultra pure ATP (V915A) was purchased from Promega. The substrate for AMPK (NH2-HMRSAMSGLHLVKRR_CONH2) was purchased from Upstate (12-355).
Compounds were tested in either serial dilutions or single dose concentrations. The serial compound dilutions were prepared in 100% DMSO automatically. The final DMSO concentration in the assay was 0.1%.
The Compound Stock Solutions were 10 mM in 100% DMSO. The compounds were solubilised at room temperature.
In the 384-well plates 1.25 ul of test compound in assay buffer was mixed with 1.25 ul of AMPK and 1.25 μl of the peptide (final concentration of 1 μM) and 1.25 μl of ATP (final concentration of 30 μM), both dissolved in assay buffer. This step was followed by an incubation time of 60 min. Then 5 μl of ADP Glo Reagent was added. This was followed by 40 min of incubation. Then 10 μl of Kinase Detection Reagent was admixed. The plates were sealed and after an incubation period of 30 min, the luminescence signal was measured in an Envision reader. All incubation steps were accomplished at room temperature.
Each assay microtiter plate contained wells with vehicle controls instead of compound (0.1% DMSO in water) as reference for the low signal (100% CTL, low signal), and wells with serial dilutions of AMP (final 30 μM) as reference for high signals.
The luminescence signal generated was proportional to the ADP concentration produced and was correlated with AMPK activity. The analysis of the data was performed by the calculation of the percentage of ATP consumption of AMPK in the presence of the test compound compared to the consumption of ATP in the presence of AMPK without compound. (RLU(sample)/RLU(low control))*100[RLU=relative luminescence units]
An activator of the AMPK enzyme gave values above 100% CTL.
EC50 values based on dose response curves are calculated with the XIFIT software using the 4 Parameter Logistic Model or Sigmoidal Dose-Response Model.

Activated AMPK complex 1 (containing alpha1beta1gamma1), sequence (Q13131 whole entry): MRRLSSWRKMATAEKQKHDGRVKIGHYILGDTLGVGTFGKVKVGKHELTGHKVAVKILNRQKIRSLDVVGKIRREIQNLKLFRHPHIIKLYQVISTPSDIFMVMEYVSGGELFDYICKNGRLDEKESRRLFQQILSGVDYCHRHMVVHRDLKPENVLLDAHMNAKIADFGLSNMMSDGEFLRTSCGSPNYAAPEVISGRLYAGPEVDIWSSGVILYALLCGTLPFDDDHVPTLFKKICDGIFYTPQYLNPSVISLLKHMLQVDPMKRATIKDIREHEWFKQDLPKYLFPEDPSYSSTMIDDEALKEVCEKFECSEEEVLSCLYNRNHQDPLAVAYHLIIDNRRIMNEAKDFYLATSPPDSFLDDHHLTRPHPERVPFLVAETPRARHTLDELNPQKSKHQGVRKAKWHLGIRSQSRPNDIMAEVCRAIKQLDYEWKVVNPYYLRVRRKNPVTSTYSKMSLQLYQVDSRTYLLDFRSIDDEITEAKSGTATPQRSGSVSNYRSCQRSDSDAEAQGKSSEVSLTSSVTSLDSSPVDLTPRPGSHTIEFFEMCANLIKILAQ
Activated AMPK complex 1 (containing alpha1beta1gamma1), sequence (Q9Y478 whole entry): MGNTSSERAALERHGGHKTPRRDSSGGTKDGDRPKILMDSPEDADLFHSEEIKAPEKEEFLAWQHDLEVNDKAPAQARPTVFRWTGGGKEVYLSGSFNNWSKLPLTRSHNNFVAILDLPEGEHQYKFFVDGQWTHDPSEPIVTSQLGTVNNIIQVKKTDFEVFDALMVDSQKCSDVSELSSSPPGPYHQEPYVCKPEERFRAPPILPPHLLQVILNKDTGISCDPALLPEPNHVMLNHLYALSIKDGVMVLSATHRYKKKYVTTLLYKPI
Activated AMPK complex 1 (containing alpha1beta1gamma1), sequence (P54619 whole entry partner): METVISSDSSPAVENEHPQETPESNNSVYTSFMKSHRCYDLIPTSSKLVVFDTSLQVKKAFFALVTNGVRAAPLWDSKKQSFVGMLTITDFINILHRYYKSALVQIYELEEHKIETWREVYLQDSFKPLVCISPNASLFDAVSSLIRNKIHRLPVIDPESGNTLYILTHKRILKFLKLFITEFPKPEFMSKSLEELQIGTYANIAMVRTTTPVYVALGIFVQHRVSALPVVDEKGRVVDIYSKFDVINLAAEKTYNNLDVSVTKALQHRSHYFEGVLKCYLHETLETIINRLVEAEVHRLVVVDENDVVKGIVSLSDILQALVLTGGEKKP

**Q.** Which EC50 does the source give for CCN(C)S(C)(=O)=Nc1ccc(-c2ccc(-c3nc4[nH]c(O[C@@H]5CO[C@H]6[C@@H]5OC[C@H]6O)nc4cc3Cl)cc2)cc1 (stereo partly drawn) [Example 4, N′-{4-[4-(2-{[(3R,3aR,6R,6aR)-6-Hydroxy-hexahydrofuro[3,2-b]furan-3-yl]oxy}-6-chloro-3H-imidazo[4,5-b]pyridin-5-yl)phenyl]phenyl}-N-ethyl-N-methyl-methanesulfonimidamide] here?
**A.** 52 nM

**Q.** How did the EC50 turn out when CN(C)S(C)(=O)=Nc1cnc(-c2ccc(-c3nc4[nH]c(O[C@@H]5CO[C@H]6[C@@H]5OC[C@H]6O)nc4cc3Cl)cc2)nc1 (stereo partly drawn) [Example 13, N′-{2-[4-(2-{[(3R,3aR,6R,6aR)-6-hydroxy-hexahydrofuro[3,2-b]furan-3-yl]oxy}-6-chloro-3H-imidazo[4,5-b]pyridin-5-yl)phenyl]pyrimidin-5-yl}-N,N-dimethyl-methanesulfonimidamide] was run?
**A.** 30 nM

**Q.** Which EC50 does the source give for CS(=O)(=Nc1cnc(-c2ccc(-c3nc4[nH]c(O[C@@H]5CO[C@H]6[C@@H]5OC[C@H]6O)nc4cc3Cl)cc2)nc1)N1CCCC1 (stereo partly drawn) [Example 16, (3R,3aR,6R,6aR)-6-({6-Chloro-5-[4-(5-{[methyl(oxo)pyrrolidin-1-yl-λ^6-sulfanylidene]-amino}pyrimidin-2-yl)phenyl]-3H-imidazo[4,5-b]pyridin-2-yl}oxy)-hexahydrofuro[3,2-b]furan-3-ol] here?
**A.** 48 nM

**Q.** CC(C)NS(C)(=O)=Nc1ccc(-c2ccc(-c3nc4[nH]c(O[C@@H]5CO[C@H]6[C@@H]5OC[C@H]6O)nc4cc3Cl)cc2)cc1 (stereo partly drawn) [Example 3, N′-{4-[4-(2-{[(3R,3aR,6R,6aR)-6-Hydroxy-hexahydrofuro[3,2-b]furan-3-yl]oxy}-6-chloro-3H-imidazo[4,5-b]pyridin-5-yl)phenyl]phenyl}-N-(propan-2-yl)-methanesulfonimidamide] was tested. Which EC50 did it give?
**A.** 94 nM

**Q.** N=S1(=O)CCCN1Cc1ccc(-c2ccc(-c3nc4[nH]c(O[C@@H]5CO[C@H]6[C@@H]5OC[C@H]6O)nc4cc3Cl)cc2)cc1 (stereo partly drawn) [Example 14, 2-({4-[4-(2-{[(3R,3aR,6R,6aR)-6-Hydroxy-hexahydrofuro[3,2-b]furan-3-yl]oxy}-6-chloro-3H-imidazo[4,5-b]pyridin-5-yl)phenyl]phenyl}methyl)-1-imino-1λ^6,2-thiazolidin-1-one] was tested. Which EC50 did it give?
**A.** 52 nM

**Q.** Which EC50 does the source give for CS(=O)(=NCc1ccc(-c2ccc(-c3nc4[nH]c(O[C@@H]5CO[C@H]6[C@@H]5OC[C@H]6O)nc4cc3Cl)cc2)cc1)N1CCCC1 (stereo partly shown) [Example 19] here?
**A.** 138 nM

**Q.** How did the EC50 turn out when CS(=O)(=Nc1ccc(-c2ccc(-c3nc4[nH]c(O[C@@H]5CO[C@H]6[C@@H]5OC[C@H]6O)nc4cc3Cl)cc2)cc1)NC1CC1 (stereo partly drawn) [Example 9, N-{4-[4-(2-{[(3R,3aR,6R,6aR)-6-Hydroxy-hexahydrofuro[3,2-b]furan-3-yl]oxy}-6-chloro-3H-imidazo[4,5-b]pyridin-5-yl)phenyl]phenyl}-N′-cyclopropyl-methanesulfonimidamide] was run?
**A.** 89 nM

**Q.** How did the EC50 turn out when CN(C)S(C)(=O)=Nc1ccc(-c2ccc(-c3nc4[nH]c(O[C@@H]5CO[C@H]6[C@@H]5OC[C@H]6O)nc4cc3Cl)cc2)cc1 (stereo partly drawn) [Example 1, N′-{4-[4-(2-{[(3R,3aR,6R,6aR)-6-Hydroxy-hexahydrofuro[3,2-b]furan-3-yl]oxy}-6-chloro-3H-imidazo[4,5-b]pyridin-5-yl)phenyl]phenyl}-N,N-dimethyl-methanesulfonimidamide] was run?
**A.** 26 nM

**Q.** Which EC50 does the source give for CS(=O)(=Nc1ccc(-c2ccc(-c3nc4[nH]c(O[C@@H]5CO[C@H]6[C@@H]5OC[C@H]6O)nc4cc3Cl)cc2)cc1)NC1CCC1 (stereo partly drawn) [Example 7, N-{4-[4-(2-{[(3R,3aR,6R,6aR)-6-Hydroxy-hexahydrofuro[3,2-b]furan-3-yl]oxy}-6-chloro-3H-imidazo[4,5-b]pyridin-5-yl)phenyl]phenyl}-N′-cyclobutyl-methanesulfonimidamide] here?
**A.** 37 nM

**Q.** Which EC50 does the source give for CN(C)S(=N)(=O)c1ccc(-c2ccc(-c3nc4[nH]c(O[C@@H]5CO[C@H]6[C@@H]5OC[C@H]6O)nc4cc3Cl)cc2)cc1 (stereo partly drawn) [Example 12, 4-[4-(2-{[(3R,3aR,6R,6aR)-6-Hydroxy-hexahydrofuro[3,2-b]furan-3-yl]oxy}-6-chloro-3H-imidazo[4,5-b]pyridin-5-yl)phenyl]-N,N-dimethyl-benzenesulfonimidamide] here?
**A.** 2 nM

**Q.** For CN(C)S(C)(=O)=NCc1ccc(-c2ccc(-c3nc4[nH]c(O[C@@H]5CO[C@H]6[C@@H]5OC[C@H]6O)nc4cc3Cl)cc2)cc1 (stereo partly drawn) [Example 20, N′—({4-[4-(2-{[(3R,3aR,6R,6aR)-6-Hydroxy-hexahydrofuro[3,2-b]furan-3-yl]oxy}-6-chloro-3H-imidazo[4,5-b]pyridin-5-yl)phenyl]phenyl}methyl)-N,N-dimethyl-methanesulfonimidamide], which EC50 is on record?
**A.** 82 nM

**Q.** Which EC50 does the source give for N#CN=S1(=O)CCCN1c1ccc(-c2ccc(-c3nc4[nH]c(O[C@@H]5CO[C@H]6[C@@H]5OC[C@H]6O)nc4cc3Cl)cc2)cc1 (stereo partly drawn) [Example 17, [(2-{4-[4-(2-{[(3R,3aR,6R,6aR)-6-Hydroxy-hexahydrofuro[3,2-b]furan-3-yl]oxy}-6-chloro-3H-imidazo[4,5-b]pyridin-5-yl)phenyl]phenyl}-1-oxo-1λ^6,2-thiazolidin-1-ylidene)amino]carbonitrile] here?
**A.** 202 nM

**Q.** How did the EC50 turn out when CNS(C)(=O)=Nc1ccc(-c2ccc(-c3nc4[nH]c(O[C@@H]5CO[C@H]6[C@@H]5OC[C@H]6O)nc4cc3Cl)cc2)nc1 (stereo partly drawn) [Example 11, N′-{6-[4-(2-{[(3R,3aR,6R,6aR)-6-Hydroxy-hexahydrofuro[3,2-b]furan-3-yl]oxy}-6-chloro-3H-imidazo[4,5-b]pyridin-5-yl)phenyl]pyridin-3-yl}-N-methyl-methanesulfonimidamide] was run?
**A.** 62 nM

**Q.** Which EC50 does the source give for CNS(C)(=O)=Nc1ccc(-c2ccc(-c3nc4[nH]c(O[C@@H]5CO[C@H]6[C@@H]5OC[C@H]6O)nc4cc3Cl)cc2)cc1 (stereo partly drawn) [Example 2, N′-{4-[4-(2-{[(3R,3aR,6R,6aR)-6-Hydroxy-hexahydrofuro[3,2-b]furan-3-yl]oxy}-6-chloro-3H-imidazo[4,5-b]pyridin-5-yl)phenyl]phenyl}-N-methyl-methanesulfonimidamide] here?
**A.** 20 nM

**Q.** For CN(C)S(C)(=O)=Nc1ccc(-c2nc3[nH]c(O[C@@H]4CO[C@H]5[C@@H]4OC[C@H]5O)nc3cc2Cl)cc1 (stereo partly drawn) [Example 21, N′-[4-(2-{[(3R,3aR,6R,6aR)-6-Hydroxy-hexahydrofuro[3,2-b]furan-3-yl]oxy}-6-chloro-3H-imidazo[4,5-b]pyridin-5-yl)phenyl]-N,N-dimethyl-methanesulfonimidamide], which EC50 is on record?
**A.** 2900 nM

**Q.** Which EC50 does the source give for CS(=O)(=Nc1ccc(-c2ccc(-c3nc4[nH]c(O[C@@H]5CO[C@H]6[C@@H]5OC[C@H]6O)nc4cc3Cl)cc2)cc1)N1CCC1 (stereo partly shown) [Example 5] here?
**A.** 15 nM

**Q.** Which EC50 does the source give for CN(C)S(C)(=O)=Nc1ccc(-c2ccc(-c3nc4[nH]c(O[C@@H]5CO[C@H]6[C@@H]5OC[C@H]6O)nc4cc3Cl)cc2)nc1 (stereo partly drawn) [Example 10, N′-{6-[4-(2-{[(3R,3aR,6R,6aR)-6-Hydroxy-hexahydrofuro[3,2-b]furan-3-yl]oxy}-6-chloro-3H-imidazo[4,5-b]pyridin-5-yl)phenyl]pyridin-3-yl}-N,N-dimethyl-methanesulfonimidamide] here?
**A.** 17 nM

**Q.** How did the EC50 turn out when CN=S(=O)(NC)c1ccc(-c2ccc(-c3nc4[nH]c(O[C@@H]5CO[C@H]6[C@@H]5OC[C@H]6O)nc4cc3Cl)cc2)cc1 (stereo partly drawn) [Example 18, 4-[4-(2-{[(3R,3aR,6R,6aR)-6-hydroxy-hexahydrofuro[3,2-b]furan-3-yl]oxy}-6-chloro-3H-imidazo[4,5-b]pyridin-5-yl)phenyl]-N,N′-dimethyl-benzenesulfonimidamide] was run?
**A.** 67 nM

**Q.** How did the EC50 turn out when CN=S(=O)(c1ccc(-c2ccc(-c3nc4[nH]c(O[C@@H]5CO[C@H]6[C@@H]5OC[C@H]6O)nc4cc3Cl)cc2)cc1)N(C)C (stereo partly drawn) [Example 15, 4-[4-(2-{[(3R,3aR,6R,6aR)-6-Hydroxy-hexahydrofuro[3,2-b]furan-3-yl]oxy}-6-chloro-3H-imidazo[4,5-b]pyridin-5-yl)phenyl]-N,N,N′-trimethyl-benzenesulfonimidamide] was run?
**A.** 90 nM

— US9422312B2, “Azabenzimidazole derivatives” (Boehringer Ingelheim International GmbH, priority 2014, dated 2016)
